From US8569243B2, “Sirtuin 6 activating peptides and cosmetic or pharmaceutical composition containing them” (ISP Investments Inc., priority 2010, dated 2013)
Where no end group is shown, it is not given here.

How the values were obtained:
TRF2 protein [1] = assay: TRF2 immunolabelling in normal human keratinocytes (NHK), long-term culture; assay type: cell-based
Procedure: (§1) The goal of this study is to determine the influence of peptide SEQ ID No. 4 on TRF2 protein expression in human skin, a protein specifically associated with telomeres and involved in their maintenance. To do this, specific labeling by immunofluorescence was carried out on normal human keratinocytes (NHK) culture and on normal human fibroblast cultures on a long-term basis.
(§2) Protocol: NHK or normal human fibroblasts in culture are treated once per day with a solution at 10^−6M or at 3×10^−6M of peptide SEQ ID No. 4, between passage 5 and passage 17 (or 12 passages) for fibroblasts and between passage 1 and passage 2 (or 1 passage and 10 days of treatment) for NHK.
(§3) For immunolabelling by anti TRF2 antibodies, the cells are washed and fixed with paraformaldehyde at 3.7% for 10 minutes. The cells are then incubated in the presence of a specific anti TRF2 antibody (Abeam, ref ab13579, polyclonal mouse), and then a secondary suitable antibody, coupled with a fluorescent dye. After mounting in a particular medium, the slides are observed by epifluorescence microscope (Nikon Eclipse E 80i microscope). Fluorescence intensity is quantified by analyzing the image using the Image-Pro Analyser version 5 software.

TRF2 protein [2] = assay: TRF2 immunolabelling in normal human fibroblasts, long-term culture; assay type: cell-based
Procedure: as §1, §2, §3

transglutaminase 1 (TG1) = assay: Epidermal differentiation marker immunolabelling in NHK: transglutaminase 1; assay type: cell-based, human; settings: 10^−6 M or 3×10^−6 M, 2 passages and 11 days of treatment
Procedure: (§4) The goal of this study is to determine the influence of peptide SEQ ID No. 5 on epidermal differentiation. To do this, the expression of the main epidermal differentiation markers, specifically expressed in the keratinocytes of suprabasal layers cultivated on a long-term basis, was studied. The markers tested are transglutaminase 1 and involucrin.
(§5) Protocol: NHK in culture are treated once per day with a solution at 10^−6M or at 3×10^−6M of peptide SEQ ID No. 5, between passage 1 and passage 3 (or 2 passages and 11 days of treatment). The cells are then washed and fixed. After unmasking the specific sites, the cells are incubated in the presence of a specific antibody directed against TG1 (TEBU, ref sc-25786, polyclonal rabbit), a specific antibody directed against involucrin (Novocastra NCL-INV, mouse monoclonal, clone SYS), and then incubated in the presence of a suitable secondary antibody, coupled with a fluorescent dye. For greater ease of observation, the cell nuclei may be counterstained by DAPI (4′,6′ Di Amidino-2-Phenylindole), a fluorescent blue molecule capable of strongly bonding to DNA). After mounting in a particular medium, the slides are observed by epifluorescence microscope (Nikon Eclipse E 80i microscope).

sirtuin 6 (SIRT6) [3] = assay: Sirtuin 6 immunolabelling in NHK after oxidative stress by H2O2; assay type: cell-based, human
Procedure: The goal of this study is to determine the protective effect of peptide SEQ ID No. 5 on keratinocytes during oxidative stress. To do this, the expression of Sirtuin 6 was qualitatively and quantitatively evaluated by specific immunolabelling after oxidative stress by H2O2.
Protocol: The NHK in culture are treated for 24 hours with a solution at 10^−6M or 3×10^−6M of peptide SEQ ID No. 5. The cells are then incubated in the presence of H2O2 at 2 mM, rinsed and then treated for another 24 hours with a solution at 10^−6M or 3×10^−6M of peptide SEQ ID No. 5. A control that was not treated and not subjected to the H2O2 stress (control 0), as well as a control that was not treated but was subjected to the H2O2 stress (control 1) were carried out.
as §3, with “SIRT6” for “TRF2”, “(Abcam,” for “(Abeam,”, “ab62738,” for “ab13579,”

collagen I = assay: Collagen I immunolabelling in normal human fibroblasts, long-term culture; assay type: cell-based; settings: 10^−6M or 3×10^−6M, passage 5 to 17
Procedure: (§6) The goal of this study is to determine the influence of peptide SEQ ID No. 5 on the expression of dermal extracellular matrix molecules. To do this, the expression of collagens I and III in normal human fibroblasts cultivated on a long-term basis was studied.
(§7) Protocol: Normal human fibroblasts are treated once per day with a solution at 10^−6 M or at 3×10^−6 M of peptide SEQ ID No. 5, between passage 5 and passage 17 (or 12 passages). The cells are then washed and fixed with cold methanol for 5 minutes. After unmasking specific sites, the cells are incubated in the presence of a specific antibody directed against collagen I (TEBU, ref 600-401-103, polyclonal rabbit) or against collagen III (TEBU, ref 600-401-105, polyclonal rabbit), and then incubated in the presence of a suitable secondary antibody, coupled with a fluorescent dye. After mounting in a particular medium, the slides are observed by epifluorescence microscope (Nikon Eclipse E 80i microscope).

involucrin = assay: Epidermal differentiation marker immunolabelling in NHK: involucrin; assay type: cell-based, human; settings: 10^−6 M or 3×10^−6 M, 2 passages and 11 days of treatment
Procedure: as §4, §5

sirtuin 6 (SIRT6) [4] = assay: Sirtuin 6 immunolabelling (immunofluorescence) in normal human fibroblasts; assay type: cell-based; settings: for SIRT6 fluorescence versus control conditions: 10^−6M or 3×10^−6 M, all conditions tested (short- and long-term); for sirtuin 6 expression stimulation effect in long-term treatment: passage 5 to passage 17
Procedure: (§8) The object of this study is to determine the influence of peptides SEQ ID No. 5 and SEQ ID No. 7 on Sirtuin 6 expression in human skin. To do this, specific labeling by immunofluorescence was carried out on normal human keratinocytes (NHK) culture and on normal human fibroblast cultures.
(§9) Protocol: NHK or normal human fibroblasts are treated once per day with a solution at 10^−6M or at 3×10^−6M of peptide SEQ ID No. 5 or peptide SEQ ID No. 7.
(§10) Short-term treatment studies for 24, 48 and 72 hours were carried out.
(§11) Long-term treatment studies were also carried out between passage 5 and passage 17 (or 12 passages) for fibroblasts and between passage 3 and passage 5 (or 2 subcultures) for NHK.
as §3, with “SIRT6” for “TRF2”, “ab62738,” for “ab13579,”, “rabbit),” for “mouse),”

normal human fibroblasts = assay: Comet assay after UVB irradiation of normal human fibroblasts; assay type: cell-based; settings: peptide 3×10^−6 M 24 h before and 24 h after UVB 60 mJ/cm^2
Procedure: The goal of this study is to determine the protective effect of peptide SEQ ID No. 5 on damage caused to the DNA by UV radiation. To do this, a comet assay, that enables damage caused to the DNA at the cellular level to be quantified, was performed.
Protocol: Normal human fibroblasts are cultured for 24 hours with the peptide of sequence SEQ ID No. 5 at a concentration of 10^−6M or 3×10^−6M, and then irradiated with UVB radiation at a rate of 60 mJ/cm^2, and then treated again for 24 hours by the peptide at a concentration of 10^−6M or 3×10^−6M. A control condition is carried out in the absence of treatment. The cells are then detached from their support by the trypsin, then centrifuged at 1200 rotations/min for 10 minutes in order to concentrate and count them.
A defined number of cells (25,000 cells) is then included in a Low Melting agarose gel at 0.75%, and then deposited on a glass slide previously covered with agarose at 1%. The slides are then immersed in a lysis solution for 1½ hours at 4° C., and then in an alkaline solution for 20 min at 4° C. The cells are thus lyzed and the DNA is denatured. […]
Quantification software enables the mean “Tail Moment” (or length of the comet tail) applied to each condition tested to be determined This parameter provides information on the level of DNA damage: the higher this parameter, the greater the DNA degradation.

sirtuin 6 (SIRT6) [5] = assay: Sirtuin 6 immunolabelling (immunofluorescence) in normal human keratinocytes (NHK); assay type: cell-based; settings: for SIRT6 fluorescence versus control conditions: 10^−6M or 3×10^−6 M, all conditions tested (short- and long-term); for sirtuin 6 expression stimulation effect in long-term treatment: passage 3 to passage 5
Procedure: as §8, §9, §10, §11
as §3, with “SIRT6” for “TRF2”, “ab62738,” for “ab13579,”, “rabbit),” for “mouse),”

collagen III = assay: Collagen III immunolabelling in normal human fibroblasts, long-term culture; assay type: cell-based; settings: 10^−6M or 3×10^−6M, passage 5 to 17
Procedure: as §6, §7

[6] = 10^−6 M or 3×10^−6 M, long-term

transglutaminase 1 fluorescence versus control conditions (transglutaminase 1 (TG1))	Substance	TRF2 fluorescence versus control conditions (TRF2 protein [1]; [6])	maximum increase of the TRF2 fluorescence with relation to the control cells (TRF2 protein [1]; treated for 10 days, 3×10^−6 M peptide)	TRF2 fluorescence versus control conditions (TRF2 protein [2]; [6])	maximum increase of the TRF2 fluorescence with relation to the control cells (TRF2 protein [2]; treated for 12 subcultures, 10^−6 M peptide)	increase in SIRT6 expression with relation to control 1 (untreated, H2O2 stress) (sirtuin 6 (SIRT6) [3]; peptide 3×10^−6 M 24 h before and 24 h after H2O2 2 mM)	increase in SIRT6 expression with relation to control 1 (untreated, H2O2 stress) (sirtuin 6 (SIRT6) [3]; peptide 10^−6M 24 h before and 24 h after H2O2 2 mM)	collagen I fluorescence versus control conditions (collagen I)	involucrin fluorescence versus control conditions (involucrin)	SIRT6 fluorescence versus control conditions (sirtuin 6 (SIRT6) [4])	sirtuin 6 expression stimulation effect in long-term treatment (sirtuin 6 (SIRT6) [4])	maximum increase of the SIRT6 fluorescence with relation to the control cells (sirtuin 6 (SIRT6) [4]; treated 24 hours, 10^−6 M peptide)	reduction of the Tail Moment compared to the control conditions (normal human fibroblasts)	SIRT6 fluorescence versus control conditions (sirtuin 6 (SIRT6) [5])	sirtuin 6 expression stimulation effect in long-term treatment (sirtuin 6 (SIRT6) [5])	maximum increase of the SIRT6 fluorescence with relation to the control cells (sirtuin 6 (SIRT6) [5]; treated 72 hours, 3×10^−6M peptide)	collagen III fluorescence versus control conditions (collagen III)
	GAGVSAE [SEQ ID No. 4]	more intense fluorescence	39%	more intense fluorescence	63%												
More intense fluorescence	Gly-Ala-Gly-Val-Ser-Ala-Glu-NH2 (GAGVSAE-NH2) [SEQ ID No. 5]					20%	16%	More intense fluorescence	More intense fluorescence	more intense fluorescence	maintained for the long term	47%	24.8%	more intense fluorescence	maintained for the long term	35%	More intense fluorescence
	Thr-Gln-Asn-Ile-Asp-Glu-Leu-NH2 (TQNIDEL-NH2) [SEQ ID No. 7]									more intense fluorescence	maintained for the long term			more intense fluorescence	maintained for the long term		
